In article PMC3260180, “FRET-Based Detection of M1 Muscarinic Acetylcholine Receptor Activation by Orthosteric and Allosteric Agonists” (PLoS ONE, 2012):

What was measured:
M1-cam5 AChR = molecular target: T1, M1-cam5 AChR (Mus musculus, UniProt P12657, INS361[…]); test: [3H]NMS competition binding in intact HEK293-M1-cam5 cell monolayers; conditions: [3H]NMS (~0.3 nM) competition, agonists 4°C for 4 h, antagonists 37°C for 45 min, mean ± s.e.m.
T1 construct: addition of the EYFP^F46L to the C-terminus of full length M1 mAChR; expressed in transfected cells; host or cells: HEK293 cells stably expressing M1-cam5 (HEK293-M1-cam5)
Method: Briefly, HEK293-M1-cam5 cells were seeded at a density of 75,000 cells/well in 24-well plates. […] […] After cell solubilization, SafeFluor scintillation fluid was added, and samples were counted on a scintillation counter.

M1-cam5 mAChR [1] = molecular target: T2, M1-cam5 mAChR (Mus musculus, UniProt P12657, INS361[…]); test: FRET measurements (FEYFP/FECFP) in HEK293-M1-cam5 cells; format: cell-based; design: addition of the EYFP^F46L to the C-terminus of full length M1 mAChR; expressed in transfected cells; host or cells: HEK293 cells stably expressing M1-cam5 (HEK293-M1-cam5); conditions: for maximal FRET decrease: maximally effective concentration (MCh 300 µM, arecoline 300 µM, pilocarpine 300 µM, 77-LH-28-1 10 µM, AC-42 30 µM), room temperature
Method: The experiments were performed at room temperature.
We also assessed the kinetics of MCh-mediated receptor conformational change with time-resolved determinations of the FRET signal recorded from single cells on activation of M1-cam5 mAChR with various concentrations of MCh.

M3 mAChRs = test: Total [3H]inositol phosphate accumulation in wild-type HEK293 cells; format: cell-based, human; conditions: Li+ (10 mM)
Method: (§1) HEK293-M1-cam5 and HEK293 cells were seeded at 100,000 cells/well in 24-well plates and incubated in fresh medium containing 2.5 µCi/mL [^3H]inositol for 48 h. The assay was performed as previously described.
As an index of PLC activation, agonist-stimulated accumulation of total [^3H]IPx was assessed in the presence of Li^+ (10 mM).

M1-cam5 = molecular target: T3, M1-cam5 (Mus musculus, UniProt P12657, INS361[…]); test: eGFP-PH biosensor translocation (phosphoinositide turnover) in HEK293-M1-cam5 cells; format: cell-based; conditions: 10 µM for 60 s
T3 construct: addition of the EYFP^F46L to the C-terminus of full length M1 mAChR; expressed in transfected cells; host or cells: HEK293 cells stably expressing M1-cam5 (HEK293-M1-cam5)

M1-cam5 mAChR [2] = molecular target: T2, M1-cam5 mAChR; conditions: 1–300 µM for 5 min, serum-starved HEK293-M1-cam5 cells
Method: Proteins were visualized using ECL reagent from GE Healthcare (Chalfont St. Giles, UK).
Phosphoinositide turnover was assessed by monitoring the translocation of the eGFP-PH probe from the plasma membrane to the cytoplasm on addition of MCh (10 µM) for 60 s, followed by washout.

[3] = molecular target: M1-3ic-ECFPc and M1-cterm-EYFP^F46L (Mus musculus, UniProt P12657, INS361[…]); test: FRET control with coexpressed M1-3ic-ECFPc and M1-cterm-EYFPF46L in HEK293 cells; conditions: 300 µM
Method: Briefly, HEK293 cells grown on coverslips were mounted on a Nikon Eclipse TE2000-S inverted microscope (Nikon) using an “Attofluor” cell chamber (Molecular Probes, Leiden, The Netherlands) and continuously superfused with HBS (150 mM NaCl, 10 mM HEPES, 10 mM glucose, 2.5 mM KCl, 4 mM CaCl2, 2 mM MgCl2, pH 7.4). Cells were observed using an oil immersion 63× lens, a polychrome V (Till Photonics, Gräfelfing, Germany) for excitation, and a dual emission photometric system. In order to minimize photobleaching, illumination time was set to 10–40 ms, applied with a frequency of 10 Hz. Fluorescence was measured at 535±15 nm (F535) and 480±20 nm (F480) (beam splitter DCLP 505 nm, Chroma Technology, Rockingham, VT, USA) on excitation at 436±10 nm (beam splitter DCLP 460 nm, Chroma Technology). The signals were detected by avalanche photodiodes and digitized using an analog/digital converter (Digidata 1322A, Axon Instruments, Union City, CA, USA) and stored on a PC using Axoscope software (Axon Instruments). The experiments were performed at room temperature.
FRET was assessed using the ratio of normalized EYFP^F46L/ECFPc fluorescence intensities.
HEK-293 cells were transiently transfected with either (A) M1-cam5 or (B) two separate plasmids, one encoding M1 with a C-terminal YFP^F46L tag and the other encoding M1 with an ECFPc tag at the same third intracellular loop location as M1-cam5. […]

M1-cam5 mAChR [4] = molecular target: T2, M1-cam5 mAChR; test: Total [3H]inositol phosphate accumulation in HEK293-M1-cam5 cells; format: cell-based; design: addition of the EYFP^F46L to the C-terminus of full length M1 mAChR; expressed in transfected cells; host or cells: HEK293 cells stably expressing M1-cam5 (HEK293-M1-cam5); conditions: in presence of Li+ (10 mM)
Method: as §1
As an index of PLC activation, agonist-stimulated accumulation of total [^3H]IPx was assessed in the presence of Li^+ (10 mM). […] On removal of agonist, the eGFP-PH biosensor translocated back to the plasma membrane.

M1-cam5 mAChR [5] = molecular target: T2, M1-cam5 mAChR; test: Receptor internalization by confocal microscopy in HEK293-M1-cam5 cells; format: cell-based; design: addition of the EYFP^F46L to the C-terminus of full length M1 mAChR; expressed in transfected cells; host or cells: HEK293 cells stably expressing M1-cam5 (HEK293-M1-cam5)
Method: Cells were seeded on coverslips coated with 100 µg/mL poly-D-lysine in PBS. When 70–80% confluency was reached, in some instances the cells were treated with various concentrations of agonists at 37°C and fixed with 4% paraformaldehyde. After a 5 min wash with PBS, the slides were mounted with Slowfade Gold/DAPI (Invitrogen, UK). The slides were examined using an Olympus FV500 confocal microscope, ECFPc and EYFP^F46L were excited via the 458 nm and 515 nm line of the argon laser and emissions were then collected at 480–495 nm and 535–565 nm, respectively. Optical sections (0.5 µm) were taken, and representative sections corresponding to the middle of the cells are presented. For each treatment, between 20 and 30 individual cells in three random fields of view were selected and examined. Fluorescence intensity of specific regions of interest (longitudinal axis) was quantified by using the Measure function of Image J software developed at the National Institutes of Health (http://rsb.info.nih.gov/ij/), as previously described. Briefly, relative quantification of intracellular (internalized) M1-cam5 was determined by measuring the amount of total fluorescence along the longitudinal axis corresponding to the intracellular space (average 4–18 ìm) excluding nucleus. Intracellular fluorescence in cells not treated with the agonist was considered to be basal fluorescence (assigned the value of 1). All other data are normalized to this basal fluorescence level.
Figure 4 Internalization characteristics of the M1-cam5 mAChR stably expressed in HEK293 cells. HEK293-M1-cam5 cells were treated with various concentration of MCh for 45 min (to assess the concentration-dependency of receptor internalization), or with MCh (300 µM) for 0–60 min (to assess the time-dependency of receptor internalization). Cellular distributions of M1-cam5 mAChR were monitored by confocal microscopy. For quantification of intracellular fluorescence at least […] of view were examined as described in the Methods section. […]

CCCCC1CCN(CCCN2C(=O)CCc3ccccc32)CC1 [77-LH-28-1]
pK B (apparent binding affinity, −log K B) (M1-cam5 AChR): 6.17±0.12 | maximal FRET decrease (M1-cam5 mAChR [1]): 6.4±0.4%

CN1[C@@H]2CC[C@H]1C[C@@H](OC(=O)C(CO)c1ccccc1)C2 (stereo partly drawn) [atropine]
effect alone on basal M1-cam5 FRET signal (M1-cam5 mAChR [1]): no effect | prevention of agonist-induced FRET change by pre-addition (M1-cam5 mAChR [1]): completely prevented | reversal of agonist-induced FRET change (M1-cam5 mAChR [1]): reversed

CC(=O)OC(C)C[N+](C)(C)C (stereo not drawn) [MCh, methacholine]
EC50 right-shift of [3H]IPx accumulation relative to HEK293-M1-cam5 cells (M3 mAChRs): > 10 fold | translocation of the eGFP-PH biosensor from the plasma membrane to the cytoplasm (M1-cam5): detectable translocation | ERK1/2 phosphorylation (M1-cam5 mAChR [2]): rapid increase | FRET response in cells coexpressing singly tagged receptors [3]: no FRET response | [3H]IPx accumulation, maximal stimulation (M1-cam5 mAChR [4]; basal 3,781±1,792): 41,954±1,030 d.p.m. mg^−1 protein | increase in [3H]IPx accumulation, maximal stimulation (M1-cam5 mAChR [4]; over basal): 11 fold | M1-cam5 mAChR internalization (endocytosis) (M1-cam5 mAChR [5]): internalized in response to MCh in a concentration- and time-dependent manner | maximal FRET decrease (M1-cam5 mAChR [1]): 9.8±0.4%

CCCCC1CCN(CCCC(=O)c2ccccc2C)CC1 [AC-42]
pK B (apparent binding affinity, −log K B) (M1-cam5 AChR): 5.11±0.11 | M1-cam5 mAChR internalization (endocytosis) (M1-cam5 mAChR [5]): resulted in receptor endocytosis | maximal FRET decrease (M1-cam5 mAChR [1]): 5.1±0.3%

C[N+](C)(C)CC#CCN1CCCC1=O [oxo-M, oxotremorine-M]
pK B (apparent binding affinity, −log K B) (M1-cam5 AChR): 5.94±0.10 | M1-cam5 mAChR internalization (endocytosis) (M1-cam5 mAChR [5]): resulted in receptor endocytosis
